Assay results from ChEMBL document CHEMBL1128835, “The antitumor activity of novel pyrazoloquinoline derivatives” (Bioorg Med Chem Lett, 1995).

How the values were obtained:
Mus musculus [1] = species on record: Mus musculus; experiment: Tested for tumor growth inhibition in mice; type: functional
DNA topoisomerase II = DNA topoisomerase II (Homo sapiens, UniProt P11388+Q02880); experiment: Compound was tested for topoisomerase II inhibition in purified HeLa cells by SDS/K+ precipitation method; type: cell-based
P388 = experiment: In vitro cytotoxicity was evaluated following 1 hour transient exposure of P388 mouse leukemia cells to the compound; type: functional, cell-based; details: P388, 1 h
Mus musculus [2] = experiment: In vivo antitumor activity was measured as the maximum dose tolerated by murine when administered intravenously; type: functional
Mus musculus [3] = experiment: In vivo antitumor activity was measured as the maximum dose tolerated by murine when administered subcutaneously; type: functional

| Compound | T/C (Mus musculus [1]) | EC50 (DNA topoisomerase II) | IC50 (P388) | MTD (Mus musculus [2]) | MTD (Mus musculus [3]) |
| --- | --- | --- | --- | --- | --- |
| Cc1cc(-c2c(F)cc3c4nn(C5CCN(C)CC5)c(=O)c-4cn(C4CC4)c3c2F)cc(C)n1 | 24% | 3200 nM | 94 nM | 128 mg/kg |  |
| CC(=O)N[C@H]1CC[C@@H](n2nc3c4cc(F)c(-c5cc(C)nc(C)c5)c(F)c4n(C4CC4)cc-3c2=O)CC1 |  | 7400 nM | 1300 nM |  |  |
| Cc1cc(-c2c(F)cc3c4nn(CCN(C)C)c(=O)c-4cn(C4CC4)c3c2F)cc(C)n1 | 8% | 2600 nM | 260 nM | 34 mg/kg |  |
| Cc1cc(-c2c(F)cc3c4nn(C5CCCCC5)c(=O)c-4cn(C4CC4)c3c2F)cc(C)n1 | 18% | 900 nM | 680 nM | 140 mg/kg |  |
| Cc1cc(-c2c(F)cc3c4nn([C@H]5CC[C@H](N(C)C)CC5)c(=O)c-4cn(C4CC4)c3c2F)cc(C)n1 | 2% | 4400 nM | 260 nM | 390 mg/kg |  |
| Cc1cc(-c2c(F)cc3c4n[nH]c(=O)c-4cn(C4CC4)c3c2F)cc(C)n1 | >100% | 11000 nM | 7900 nM |  | 2500 mg/kg |
| Cc1cc(-c2c(F)cc3c4nn(C5CCC(C)CC5)c(=O)c-4cn(C4CC4)c3c2F)cc(C)n1 (centres undefined) |  | 3100 nM | 1400 nM |  |  |
| Cc1cc(-c2c(F)cc3c4nn(CCCN(C)C)c(=O)c-4cn(C4CC4)c3c2F)cc(C)n1 | 35% | 1700 nM | 160 nM | 64 mg/kg |  |
| Cc1cc(-c2c(F)cc3c4nn([C@H]5CC[C@@H](N)CC5)c(=O)c-4cn(C4CC4)c3c2F)cc(C)n1 | 21% | 500 nM | 440 nM | 110 mg/kg |  |
| Cc1cc(-c2c(F)cc3c4nn(C)c(=O)c-4cn(C4CC4)c3c2F)cc(C)n1 |  | 5900 nM | 3100 nM |  |  |
| Cc1cc(-c2c(F)cc3c4nn(CCO)c(=O)c-4cn(C4CC4)c3c2F)cc(C)n1 |  | 6400 nM | 2000 nM |  |  |
| CCOC(=O)Cn1nc2c3cc(F)c(-c4cc(C)nc(C)c4)c(F)c3n(C3CC3)cc-2c1=O |  | 6100 nM | 5100 nM |  |  |
| Cc1cc(-c2c(F)cc3c4nn(CCNCCO)c(=O)c-4cn(C4CC4)c3c2F)cc(C)n1 | 42% | 3300 nM | 1300 nM | 1410 mg/kg |  |
| Cc1cc(-c2c(F)cc3c4nn(CC(=O)O)c(=O)c-4cn(C4CC4)c3c2F)cc(C)n1 |  | 10000 nM | > 200000 nM |  |  |
| Cc1cc(-c2c(F)cc3c4nn(-c5ccccc5)c(=O)c-4cn(C4CC4)c3c2F)cc(C)n1 | >100% |  | 1800 nM |  | 635 mg/kg |
| Cc1cc(-c2c(F)cc3c4nn([C@H]5CC[C@@H](N(C)C)CC5)c(=O)c-4cn(C4CC4)c3c2F)cc(C)n1 | 5% | 1700 nM | 67 nM | 63 mg/kg |  |
| CC(=O)N[C@H]1CC[C@H](n2nc3c4cc(F)c(-c5cc(C)nc(C)c5)c(F)c4n(C4CC4)cc-3c2=O)CC1 |  | 9800 nM | 1200 nM |  |  |
| Cc1cc(-c2c(F)cc3c(=O)ccn(C4CC4)c3c2F)cc(C)n1 | >100% |  | 15000 nM |  | 1950 mg/kg |
| Cc1cc(-c2c(F)cc3c4nn(C5CCOCC5)c(=O)c-4cn(C4CC4)c3c2F)cc(C)n1 |  | 1700 nM | 290 nM |  |  |
| Cc1cc(-c2c(F)cc3c4nn([C@H]5CC[C@H](N)CC5)c(=O)c-4cn(C4CC4)c3c2F)cc(C)n1 | 42% | 4200 nM | 1500 nM | 550 mg/kg |  |
| COc1cc(NS(C)(=O)=O)ccc1Nc1c2ccccc2nc2ccccc12 [AMSACRINE] | 0% |  | 150 nM | 48 mg/kg |  |
| COc1cc([C@@H]2c3cc4c(cc3[C@@H](O[C@@H]3O[C@@H]5CO[C@@H](C)O[C@H]5[C@H](O)[C@H]3O)[C@H]3COC(=O)[C@H]23)OCO4)cc(OC)c1O [ETOPOSIDE] | 3% |  |  | 96 mg/kg |  |
| Cc1cc(-c2c(F)cc3c(=O)c(C(=O)O)cn(C4CC4)c3c2F)cc(C)n1 [WIN-57294] | 31% |  |  |  | 600 mg/kg |
